Data reported in US20210139497A1, “THIENOCYCLIC COMPOUND AND SYNTHESIS METHOD THEREFOR AND APPLICATION THEREOF” (SHANGHAI YUYAO BIOTECH LTD., priority 2017, published 2021).
Values belong to the compound of their own block, whether it stands above or below them.

Tests used:
[1] = tested on: mouse models of colon cancer, breast cancer, pancreatic cancer and sarcoma; details: Oncoimmunology 2017; cited from earlier work
[2] = tested on: mouse colon cancer cells CT26; assay: CT26 subcutaneous tumor-bearing model, Balb/c mice; format: in vivo; details: female Balb/c mice, 75 mg/kg/day, 14 days, vs negative control, FIG. 3
Protocol: 2×10^6 mouse colon cancer cells CT26 were subcutaneously injected into right side of each mouse's back (female Balb/c mouse, 6-8 weeks). The length and width of subcutaneous tumors in the back of mice were measured using vernier calipers, and tumor volume (mm^3)=(length(mm)×width(mm)×width(mm)×n)/6 was calculated. […] The volume of subcutaneous tumors on the back of mice was measured and counted twice a week. Continuous administrated for a period of 14 days and the changes of tumor volumes were recorded.
Mouse colon cancer cells MC38, pancreatic cancer cells Pan02, breast cancer cells 4T1, prostate cancer cells RM-1 and colon cancer cells CT26 were cultivated to required amount. Then, cells at a cell density of 5×10^5-2×10^6 were subcutaneously injected into right side of the back of selected female C57BL/6 mice aging 6-8 weeks (MC38, Pan02), male C57BL/6 mice aging 6-8 weeks (RM-1), female Balb/c mice aging 6-8 weeks (4T1, CT26) and female Balb/c nude mice aging 6-8 weeks (CT26). The length and width of subcutaneous tumors in the backs of mice were measured using vernier calipers, and tumor volume(mm^3)=(length(mm)×width(mm)×width(mm)×n)/6 was calculated. […] The volume of subcutaneous tumors on the back of mice was measured and counted 2-4 times a week. Continuous administrated for 12-22 days and the changes of tumor volumes were recorded.

[3] = Cytotoxicity evaluation (CCK8), EMT-6; details: mouse, EMT-6 breast cancer cells
Protocol: (§5) Cells with a density of 2000-8000 cells per 100 μL medium were seeded in 96-well plates (Falcon, CA) and incubated for 24 hours, then treated with drugs having different concentration gradient (at least 4 replicates per concentration) and incubated at 37° C. in 5% CO2 incubator for 72 hours. Then cell viability was detected by CCK8 method. That is to say, add 10 μL CCK8 to each well and incubate for 0.33-2 h, and the OD values are read by microplate reader at 450 nm. The inhibition rate on cell survival of compounds with each concentration were calculated.
(§6) Inhibition rate on cell survival=(OD value of groups with each concentration/OD
(§7) value of control group)×100%±standard deviation.
(§8) The IC50 of drugs were calculated using GraphPad Prism 5.0.

[4] = Cytotoxicity evaluation (CCK8), LLC; details: mouse, LLC lung cancer cells
Protocol: as §5, §6, §7, §8

[5] = Cytotoxicity evaluation (CCK8), 293; details: human
[6] = target: T1, mouse PGE2 receptor EP4 subtype (mEP4) (Mus musculus, UniProt P32240); assay: Calcium flux of mouse prostaglandin E2 receptor EP4 subtype; format: cell-based; details: CHO-K1-Gα16 cells overexpressing mEP4, calcium flux activated by prostaglandin E2; read-out: mEP4 Ca^2+ IC50
T1 construct: expressed in transfected cells; host or cells: CHO-K1-Gα16
Protocol: (§1) CHO-K1-Gα16 cells at the logarithmic growth phase were transfected with EP4 overexpressing vector by Lipofectamine 2000 and then seeded in a 96-well plate (Falcon, CA) and cultured at 20000 cells per 100 μL culture medium overnight. On the second day, every single well were added with 100 μL calcium 5 detection reagents (Molecular Devices) and incubated in incubator at 37° C., 5% CO2 for 45 minutes. The compounds were diluted in HBSS detection buffer, then added to 96-well plates. After incubated for 20 min at room temperature away from light, certain concentration of prostaglandin E2 was used to activate calcium flux of cells for detection (Flexstation 3, MD, CA).
(§2) Calculate the IC50 of the compounds of the invention in inhibiting the calcium flux of human PGE2 receptor EP4 subtype (hEP4) and mouse PGE2 receptor EP4 subtype (mEP4) (i.e. the concentration of drugs at which the intracellular Ca^2+ flux is inhibited by half after overexpressing hEP4 and mEP4 receptors in CHO-K1-Gα16 cells). The IC50 of the drugs were calculated using GraphPad Prism 5.

[7] = Cytotoxicity evaluation (CCK8), MOSJ; details: mouse, MOSJ osteosarcoma cells
Protocol: as §5, §6, §7, §8

[8] = Cytotoxicity evaluation (CCK8), PANC02; details: mouse, PANC02 pancreatic cancer cells
Protocol: as §5, §6, §7, §8

[9] = target: T2, human PGE2 receptor EP4 subtype (hEP4) (Homo sapiens, UniProt P35408); assay: Calcium flux of human prostaglandin E2 receptor EP4 subtype; format: cell-based; details: CHO-K1-Gα16 cells overexpressing hEP4, calcium flux activated by prostaglandin E2; read-out: hEP4 Ca^2+ IC50
T2 construct: expressed in transfected cells; host or cells: CHO-K1-Gα16
Protocol: as §1, §2

[10] = Cytotoxicity evaluation (CCK8), CT26; details: mouse, CT26 intestinal cancer cells
Protocol: as §5, §6, §7, §8

[11] = target: T3, human prostaglandin E2 receptor EP1 subtype (Homo sapiens, UniProt P34995); assay: Calcium flux of human prostaglandin E2 receptor EP1 subtype; format: cell-based; details: CHO-K1-Gα16 cells overexpressing human EP1, activated by prostaglandin E2; read-out: hEP1 Ca^2+ IC50
T3 construct: expressed in transfected cells; host or cells: CHO-K1-Gα16
T3 sequence (P34995 1-402): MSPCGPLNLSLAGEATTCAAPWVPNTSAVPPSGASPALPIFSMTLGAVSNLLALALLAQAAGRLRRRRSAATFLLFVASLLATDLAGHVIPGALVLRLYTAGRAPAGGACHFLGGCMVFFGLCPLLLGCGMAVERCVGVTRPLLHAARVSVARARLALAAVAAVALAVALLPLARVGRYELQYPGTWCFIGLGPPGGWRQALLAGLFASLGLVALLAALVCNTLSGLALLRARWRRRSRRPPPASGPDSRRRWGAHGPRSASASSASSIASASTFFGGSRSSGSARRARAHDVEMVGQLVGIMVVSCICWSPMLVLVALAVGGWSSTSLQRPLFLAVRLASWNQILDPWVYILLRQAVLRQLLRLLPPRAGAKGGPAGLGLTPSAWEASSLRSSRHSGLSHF
Protocol: (§3) CHO-K1-Gα16 cells at the logarithmic growth phase were transfected with human prostaglandin E2 Receptor subtypes EP1, EP2 or EP3 overexpressing vector by Lipofectamine 2000, then seeded in a 96-well plate (Falcon, CA) at a density of 20000 cells per 100 μL culture medium for overnight culture. On the second day, every single well were added with 100 μL calcium 5 detection reagents (Molecular Devices) and incubated in incubator at 37° C., 5% CO2 for 45 minutes. The compounds were diluted with HBSS detection buffer, then were added to 96-well plates. After 20 min incubation at room temperature in the dark, prostaglandin E2 at certain concentration was used to activate calcium flux of cells for detection (Flexstation 3, MD, CA).
(§4) Calculate the IC50 of the compounds of the invention in inhibiting the calcium flux of human EP1, EP2, and EP3 receptor (i.e. the concentration of drugs at which the intracellular Ca^2+ flux being inhibited by half after overexpressing human EP1, EP2, and EP3 receptors in CHO-K1-Gα16 cells). The IC50 of the drugs were calculated using GraphPad Prism 5.

[12] = target: T4, human prostaglandin E2 receptor EP3 subtype (Homo sapiens, UniProt P43115); assay: Calcium flux of human prostaglandin E2 receptor EP3 subtype; format: cell-based; details: CHO-K1-Gα16 cells overexpressing human EP3, activated by prostaglandin E2; read-out: hEP3 Ca^2+ IC50
T4 construct: expressed in transfected cells; host or cells: CHO-K1-Gα16
T4 sequence (P43115 1-390): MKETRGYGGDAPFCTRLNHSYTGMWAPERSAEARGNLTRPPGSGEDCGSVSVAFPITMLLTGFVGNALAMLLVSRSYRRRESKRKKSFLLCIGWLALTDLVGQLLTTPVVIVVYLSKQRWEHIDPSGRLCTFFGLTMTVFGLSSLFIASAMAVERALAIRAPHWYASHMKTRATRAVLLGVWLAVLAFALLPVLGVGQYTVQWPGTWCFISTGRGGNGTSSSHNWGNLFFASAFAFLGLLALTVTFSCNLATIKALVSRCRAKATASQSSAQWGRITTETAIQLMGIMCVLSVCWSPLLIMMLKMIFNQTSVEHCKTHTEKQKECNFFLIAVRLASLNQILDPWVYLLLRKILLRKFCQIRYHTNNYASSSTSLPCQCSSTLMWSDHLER
Protocol: as §3, §4

[13] = target: T5, human prostaglandin E2 receptor EP2 subtype (Homo sapiens, UniProt P43116); assay: Calcium flux of human prostaglandin E2 receptor EP2 subtype; format: cell-based; details: CHO-K1-Gα16 cells overexpressing human EP2, activated by prostaglandin E2; read-out: hEP2 Ca^2+ IC50
T5 construct: expressed in transfected cells; host or cells: CHO-K1-Gα16
Protocol: as §3, §4

T2 sequence (P35408 whole entry): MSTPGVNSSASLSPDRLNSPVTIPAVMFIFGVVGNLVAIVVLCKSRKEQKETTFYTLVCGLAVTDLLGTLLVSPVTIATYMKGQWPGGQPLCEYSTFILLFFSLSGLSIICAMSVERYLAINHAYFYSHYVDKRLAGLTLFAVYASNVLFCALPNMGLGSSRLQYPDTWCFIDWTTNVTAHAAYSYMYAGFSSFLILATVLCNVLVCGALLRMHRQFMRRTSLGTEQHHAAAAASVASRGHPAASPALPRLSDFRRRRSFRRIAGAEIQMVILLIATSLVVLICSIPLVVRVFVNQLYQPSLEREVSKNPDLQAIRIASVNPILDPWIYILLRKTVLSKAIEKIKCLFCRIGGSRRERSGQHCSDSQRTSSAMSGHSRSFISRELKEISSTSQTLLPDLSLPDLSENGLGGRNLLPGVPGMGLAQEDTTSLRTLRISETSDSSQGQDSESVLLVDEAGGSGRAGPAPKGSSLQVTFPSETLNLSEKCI
T1 sequence (P32240 whole entry): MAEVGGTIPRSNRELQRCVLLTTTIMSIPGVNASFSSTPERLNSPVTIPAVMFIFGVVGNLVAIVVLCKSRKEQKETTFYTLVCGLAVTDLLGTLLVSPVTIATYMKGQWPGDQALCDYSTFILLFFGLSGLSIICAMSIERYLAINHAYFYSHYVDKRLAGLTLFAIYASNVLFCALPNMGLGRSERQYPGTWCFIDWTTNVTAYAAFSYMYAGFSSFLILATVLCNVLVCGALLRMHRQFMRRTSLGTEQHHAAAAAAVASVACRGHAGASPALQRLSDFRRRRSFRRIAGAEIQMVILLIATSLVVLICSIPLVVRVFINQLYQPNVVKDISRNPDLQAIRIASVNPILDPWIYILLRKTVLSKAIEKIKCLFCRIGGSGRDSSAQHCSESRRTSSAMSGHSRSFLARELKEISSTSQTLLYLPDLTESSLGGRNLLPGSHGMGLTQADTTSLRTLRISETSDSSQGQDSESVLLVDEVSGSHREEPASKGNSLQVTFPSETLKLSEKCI
T5 sequence (P43116 whole entry): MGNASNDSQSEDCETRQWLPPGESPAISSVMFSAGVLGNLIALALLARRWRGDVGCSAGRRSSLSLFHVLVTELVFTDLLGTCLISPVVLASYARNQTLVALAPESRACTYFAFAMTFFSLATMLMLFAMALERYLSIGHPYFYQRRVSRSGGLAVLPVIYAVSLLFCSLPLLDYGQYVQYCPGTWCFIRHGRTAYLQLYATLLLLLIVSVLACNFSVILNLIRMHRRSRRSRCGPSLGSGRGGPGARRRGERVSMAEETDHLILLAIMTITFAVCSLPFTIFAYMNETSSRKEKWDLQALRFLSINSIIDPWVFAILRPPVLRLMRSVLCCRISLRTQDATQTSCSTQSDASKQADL

Compound: C[C@H](NC(=O)c1c(C(F)F)nn(C)c1Oc1cccc(C(F)(F)F)c1)c1ccc(C(=O)O)cc1 [Compound E7046, reference compound]
- Inhibitory effects in mouse tumor models [1]: good inhibitory effects
- Inhibitory effect on growth of subcutaneous CT26 colon cancer [2]: comparable with that of E7046

- IC50 [6]: < 0.1 µM
- IC50 [9]: < 0.1 µM
Compound: C[C@H](NC(=O)c1c(CCc2ccc(F)cc2)sc2c1CCOC2)c1ccc(C(=O)O)cc1 [YJ106, (S)-4-(1-(2-(4-fluorophenethyl)-4,7-dihydro-5H-thieno[2,3-c]pyran-3-carboxamido)ethyl)benzoic Acid]
- IC50 at 72 h [3]: > 100 µM
- IC50 at 72 h [4]: > 100 µM
- IC50 at 72 h [5]: > 100 µM
- IC50 at 72 h [7]: > 100 µM
- IC50 at 72 h [8]: > 100 µM
- IC50 at 72 h [10]: > 100 µM
- Inhibitory effect on growth of subcutaneous CT26 colon cancer [2]: able to suppress the growth

Compound: C[C@H](NC(=O)c1c(Cc2ccc(C(F)(F)F)cc2)sc2c1CCOC2)c1ccc(C(=O)O)cc1 [YJ115, (S)-4-(1-(2-(4-(trifluoromethyl)benzyl)-5,7-dihydro-4H-thieno[2,3-c]pyran-3-carboxamido)ethyl)benzoic Acid]
- IC50 at 72 h [3]: > 100 µM
- IC50 at 72 h [4]: > 100 µM
- IC50 at 72 h [5]: > 100 µM
- IC50 [6]: < 0.1 µM
- IC50 at 72 h [7]: > 100 µM
- IC50 at 72 h [8]: > 100 µM
- IC50 [9]: < 0.1 µM
- IC50 at 72 h [10]: > 100 µM
- Inhibitory effect on growth of subcutaneous CT26 colon cancer [2]: able to suppress the growth

Compound: O=C(O)c1ccc(CNC(=O)c2c(Cc3ccc(F)cc3)sc3c2CCOC3)cc1 [YJ120, 4-((2-(4-fluorobenzyl)-4,7-dihydro-5H-thieno[2,3-c]pyran-3-carboxamido)methyl)benzoic Acid]
- IC50 at 72 h [3]: > 100 µM
- IC50 at 72 h [4]: > 100 µM
- IC50 at 72 h [5]: > 100 µM
- IC50 [6]: < 0.1 µM
- IC50 at 72 h [7]: > 100 µM
- IC50 at 72 h [8]: > 100 µM
- IC50 at 72 h [10]: > 100 µM
- Inhibitory effect on growth of subcutaneous CT26 colon cancer [2]: able to suppress the growth

- IC50 [11]: > 10 µM
- IC50 [12]: > 10 µM
- IC50 [6]: 0.1 to 1 µM
- IC50 [13]: > 10 µM
- IC50 [9]: < 0.1 µM
Compound: C[C@H](NC(=O)c1c(CCc2cccc(C(F)(F)F)c2)sc2c1CCOC2)c1ccc(C(=O)O)cc1 [YJ112, (S)-4-(1-(2-(3-(trifluoromethyl)phenethyl)-5,7-dihydro-4H-thieno[2,3-c]pyran-3-carboxamido)ethyl)benzoic Acid]
- IC50 at 72 h [3]: > 100 µM
- IC50 at 72 h [4]: > 100 µM
- IC50 at 72 h [5]: > 100 µM
- IC50 at 72 h [7]: > 100 µM
- IC50 at 72 h [8]: > 100 µM
- IC50 at 72 h [10]: > 100 µM

- IC50 [11]: > 10 µM
- IC50 [12]: > 10 µM
- IC50 [6]: < 0.1 µM
- IC50 [13]: > 10 µM
- IC50 [9]: < 0.1 µM
Compound: C[C@H](NC(=O)c1c(CCc2ccc(F)cc2)sc2c1CCCC2)c1ccc(C(=O)O)cc1 [YJ108, (S)-4-(1-(2-(4-fluorophenethyl)-4,5,6,7-tetrahydrobenzo[b]thiophene-3-carboxamido)ethyl)benzoic Acid]
- IC50 at 72 h [3]: > 100 µM
- IC50 at 72 h [4]: > 100 µM
- IC50 at 72 h [5]: > 100 µM
- IC50 at 72 h [7]: > 100 µM
- IC50 at 72 h [8]: > 100 µM
- IC50 at 72 h [10]: > 100 µM

Compound: C[C@H](NC(=O)c1c(Cc2cccc(C(F)(F)F)c2)sc2c1CCOC2)c1ccc(C(=O)O)cc1 [YJ116, (S)-4-(1-(2-(3-(trifluoromethyl)benzyl)-5,7-dihydro-4H-thieno[2,3-c]pyran-3-carboxamido)ethyl)benzoic Acid]
- IC50 [11]: > 10 µM
- IC50 [12]: > 10 µM
- IC50 at 72 h [3]: > 100 µM
- IC50 at 72 h [4]: > 100 µM
- IC50 at 72 h [5]: > 100 µM
- IC50 [6]: < 0.1 µM
- IC50 [13]: > 10 µM
- IC50 at 72 h [7]: > 100 µM
- IC50 at 72 h [8]: > 100 µM
- IC50 [9]: < 0.1 µM
- IC50 at 72 h [10]: > 100 µM
- Inhibitory effect on growth of subcutaneous CT26 colon cancer [2]: able to suppress the growth
